Key:
[1] = Incorporation (miscibility) of phenytoin into cyanoacrylate monomers; format: physicochemical
Protocol: According to the present invention, an effective amount of wound healing promoter, is incorporated into the pre-stabilized liquid monomeric cyanoacrylate adhesive compositions to form a homogeneous liquid adhesive product. […] After continuous stirring at this elevated temperature, the mixture of cyanaocrylate monomers and wound healing accelerator becomes a homogeneous solution within about 1 to 2 hours. Standard mixing equipment and techniques are suitable. The 5,5-[…], including phenytoin are readily available from major chemical distributors. […] Table 1 below summarizes the results of incorporating phenytoin into different cyanoacrylate monomer solutions at the elevated temperatures. […] At the elevated temperatures, phenytoin is soluble in both 2-octyl cyanoacrylate (OCA) and n-butyl cyanoacrylate (BCA). It is also interesting to note that phenytoin is more soluble in shorter alkyl chain cyanoacrylate (BCA) than in longer alkyl chain cyanoacrylate (OCA).

[2] = system: bacterial load of wounds; details: clinical studies; cited from earlier work
[3] = system: surgical wounds of periodontal patients; details: topical; cited from earlier work

SMILES: O=C1NC(=O)C(c2ccccc2)(c2ccccc2)N1 [phenytoin, 5,5-diphenylhydantoin]
- Solubility in 2-octyl cyanoacrylate (OCA) ([1]; elevated temperatures): soluble
- Solubility in n-butyl cyanoacrylate (BCA) ([1]; elevated temperatures): soluble
- Solubility in 2-octyl cyanoacrylate (OCA) monomer ([1]; room temperature): not soluble
- Solubility in BCA compared with OCA ([1]; shorter vs longer alkyl chain cyanoacrylate): more soluble
- Bacterial load of wounds [2]: decrease the bacterial load of wounds
- Inflammation and pain [3]: reduced inflammation and pain
- Wound healing [3]: accelerated wound healing

Source: US9533071B2, “Wound healing compositions including cyanoacrylate monomers and phenytoin” (Adhezion Biomedical, LLC, priority 2010, dated 2017)
